Assay results published in ChEMBL document CHEMBL2406981, “Novel pyrazoline amidoxime and their 1,2,4-oxadiazole analogues: synthesis and pharmacological screening” (Bioorg Med Chem Lett, 2013).
≈ marks a conversion by molar mass, not a printed value.

Assays:
Assay type in all cases: functional
[1] = test system: Bacillus cereus; assay: Antimicrobial activity against Bacillus cereus MTCC 8372 at 50 ug/ml after 24 hrs by agar disc diffusion method; details: MTCC 8372, 24 h, read-out: DIZ
[2] = Antioxidant activity assessed as reducing power of ferric ion at 10 ug/ml after 20 mins; design: scale not given: the % may be the effect or the level left
[3] = test system: Bacillus cereus; assay: Antimicrobial activity against Bacillus cereus MTCC 8372 at 100 ug/ml after 24 hrs by agar disc diffusion method; details: MTCC 8372, 24 h, read-out: DIZ
[4] = test system: Shigella flexneri; assay: Antimicrobial activity against Shigella flexneri MTCC 1457
[5] = Antioxidant activity against ferric chloride-induced lipid peroxidation using egg lecithin at 10 ug/ml after 1 hr
[6] = test system: Shigella flexneri; assay: Antimicrobial activity against Shigella flexneri MTCC 1457 at 50 ug/ml after 24 hrs by agar disc diffusion method; details: MTCC 1457, 24 h, read-out: DIZ
[7] = Antioxidant activity against ferric chloride-induced lipid peroxidation using egg lecithin at 100 ug/ml after 1 hr
[8] = test system: Escherichia coli; assay: Antimicrobial activity against Escherichia coli MTCC 724
[9] = test system: Klebsiella pneumoniae; assay: Antimicrobial activity against Klebsiella pneumoniae MTCC 3384
[10] = test system: Aspergillus niger; assay: Antimicrobial activity against Aspergillus niger MTCC 281
[11] = Antioxidant activity assessed as reducing power of ferric ion at 100 ug/ml after 20 mins; design: scale not given: the % may be the effect or the level left
[12] = test system: Aspergillus niger; assay: Antimicrobial activity against Aspergillus niger MTCC 281 at 50 ug/ml after 24 hrs by agar disc diffusion method; details: MTCC 281, 24 h, read-out: DIZ
[13] = test system: Klebsiella pneumoniae; assay: Antimicrobial activity against Klebsiella pneumoniae MTCC 3384 at 100 ug/ml after 24 hrs by agar disc diffusion method; details: MTCC 3384, 24 h, read-out: DIZ
[14] = Antioxidant activity assessed as reducing power of ferric ion at 50 ug/ml after 20 mins; design: scale not given: the % may be the effect or the level left
[15] = Antiinflammatory activity against heat-induced albumin denaturation at […] preincubated for 15 mins before heat induction by UV-vis spectrophotometer analysis
[16] = test system: Staphylococcus aureus; assay: Antimicrobial activity against Staphylococcus aureus MTCC 96 at 100 ug/ml after 24 hrs by agar disc diffusion method; details: MTCC 96, 24 h, read-out: DIZ
[17] = test system: Escherichia coli; assay: Antimicrobial activity against Escherichia coli MTCC 724 at 50 ug/ml after 24 hrs by agar disc diffusion method; details: MTCC 724, 24 h, read-out: DIZ
[18] = test system: Aspergillus flavus; assay: Antimicrobial activity against Aspergillus flavus MTCC 873 at 100 ug/ml after 24 hrs by agar disc diffusion method; details: MTCC 873, 24 h, read-out: DIZ
[19] = test system: Escherichia coli; assay: Antimicrobial activity against Escherichia coli MTCC 724 at 100 ug/ml after 24 hrs by agar disc diffusion method; details: MTCC 724, 24 h, read-out: DIZ
[20] = test system: Aspergillus flavus; assay: Antimicrobial activity against Aspergillus flavus MTCC 873
[21] = test system: Radical scavenging activity; assay: Antioxidant activity assessed as DPPH free radical scavenging activity at 10 ug/ml after 20 mins
[22] = test system: Bacillus cereus; assay: Antimicrobial activity against Bacillus cereus MTCC 8372
[23] = test system: Aspergillus niger; assay: Antimicrobial activity against Aspergillus niger MTCC 281 at 100 ug/ml after 24 hrs by agar disc diffusion method; details: MTCC 281, 24 h, read-out: DIZ
[24] = test system: Radical scavenging activity; assay: Antioxidant activity assessed as DPPH free radical scavenging activity at 50 ug/ml after 20 mins
[25] = test system: Staphylococcus aureus; assay: Antimicrobial activity against Staphylococcus aureus MTCC 96
[26] = test system: Staphylococcus aureus; assay: Antimicrobial activity against Staphylococcus aureus MTCC 96 at 50 ug/ml after 24 hrs by agar disc diffusion method; details: MTCC 96, 24 h, read-out: DIZ
[27] = test system: Radical scavenging activity; assay: Antioxidant activity assessed as DPPH free radical scavenging activity at 100 ug/ml after 20 mins
[28] = Antioxidant activity against ferric chloride-induced lipid peroxidation using egg lecithin at 50 ug/ml after 1 hr
[29] = test system: Shigella flexneri; assay: Antimicrobial activity against Shigella flexneri MTCC 1457 at 100 ug/ml after 24 hrs by agar disc diffusion method; details: MTCC 1457, 24 h, read-out: DIZ
[30] = test system: Klebsiella pneumoniae; assay: Antimicrobial activity against Klebsiella pneumoniae MTCC 3384 at 50 ug/ml after 24 hrs by agar disc diffusion method; details: MTCC 3384, 24 h, read-out: DIZ
[31] = test system: Aspergillus flavus; assay: Antimicrobial activity against Aspergillus flavus MTCC 873 at 50 ug/ml after 24 hrs by agar disc diffusion method; details: MTCC 873, 24 h, read-out: DIZ

| Compound | zone of inhibition at 50 µg/mL [1] [mm] | Activity [2] [%] | zone of inhibition at 100 µg/mL [3] [mm] | MIC [4] [µg/mL] | inhibition [5] [%] | zone of inhibition at 50 µg/mL [6] [mm] | inhibition [7] [%] | MIC [8] [µg/mL] | MIC [9] [µg/mL] | MIC [10] [µg/mL] | Activity [11] [%] | zone of inhibition at 50 µg/mL [12] [mm] | zone of inhibition at 100 µg/mL [13] [mm] | Activity [14] [%] | inhibition [15] [%] | zone of inhibition at 100 µg/mL [16] [mm] | zone of inhibition at 50 µg/mL [17] [mm] | zone of inhibition at 100 µg/mL [18] [mm] | zone of inhibition at 100 µg/mL [19] [mm] | MIC [20] [µg/mL] | also measured |
| --- | --- | --- | --- | --- | --- | --- | --- | --- | --- | --- | --- | --- | --- | --- | --- | --- | --- | --- | --- | --- | --- |
| Oc1ccc(C2=NN(c3ccccc3)C(c3noc(-c4ccc(O)cc4)n3)C2)cc1 (stereo not given) | 6 | 12 | 10 | 10 (≈ 25.1 µM) | 34 | 14 | 78 | 10 (≈ 25.1 µM) | 15 (≈ 37.6 µM) | 10 (≈ 25.1 µM) | 76 | 14 | 16 | 30 | 69.7 | 12 | 12 | 20 | 20 | 10 (≈ 25.1 µM) | Activity [21]: 31%; MIC [22]: 25 µg/mL (≈ 62.7 µM); zone of inhibition at 100 µg/mL [23]: 22 mm; Activity [24]: 47%; MIC [25]: 20 µg/mL (≈ 50.2 µM); zone of inhibition at 50 µg/mL [26]: 8 mm; Activity [27]: 86%; inhibition [28]: 58%; zone of inhibition at 100 µg/mL [29]: 22 mm; zone of inhibition at 50 µg/mL [30]: 10 mm; zone of inhibition at 50 µg/mL [31]: 12 mm |
| Clc1ccc(-c2nc(C3CC(c4ccccc4)=NN3c3ccccc3)no2)cc1 (stereo not given) | 6 | 12 | 10 | 25 (≈ 62.4 µM) | 34 | 6 | 73 | 30 (≈ 74.8 µM) | 30 (≈ 74.8 µM) | 10 (≈ 24.9 µM) | 65 | 11 | 8 | 22 | 53.7 | 10 | 4 | 14 | 18 | 10 (≈ 24.9 µM) | Activity [21]: 23%; MIC [22]: 25 µg/mL (≈ 62.4 µM); zone of inhibition at 100 µg/mL [23]: 20 mm; Activity [24]: 42%; MIC [25]: 20 µg/mL (≈ 49.9 µM); zone of inhibition at 50 µg/mL [26]: 8 mm; Activity [27]: 67%; inhibition [28]: 48%; zone of inhibition at 100 µg/mL [29]: 10 mm; zone of inhibition at 50 µg/mL [30]: 5 mm; zone of inhibition at 50 µg/mL [31]: 12 mm |
| COc1ccc(C2=NN(c3ccccc3)C(c3noc(-c4ccc(OC)c(OC)c4)n3)C2)cc1 (stereo not given) | 12 | 13 | 16 | 15 (≈ 32.9 µM) | 34 | 10 | 76 | 20 (≈ 43.8 µM) | 20 (≈ 43.8 µM) | 10 (≈ 21.9 µM) | 74 | 16 | 18 | 23 | 29.9 | 18 | 8 | 20 | 16 | 10 (≈ 21.9 µM) | Activity [21]: 29%; MIC [22]: 10 µg/mL (≈ 21.9 µM); zone of inhibition at 100 µg/mL [23]: 30 mm; Activity [24]: 48%; MIC [25]: 15 µg/mL (≈ 32.9 µM); zone of inhibition at 50 µg/mL [26]: 10 mm; Activity [27]: 67%; inhibition [28]: 49%; zone of inhibition at 100 µg/mL [29]: 24 mm; zone of inhibition at 50 µg/mL [30]: 8 mm; zone of inhibition at 50 µg/mL [31]: 16 mm |
| c1ccc(C2=NN(c3ccccc3)C(c3noc(-c4ccccc4)n3)C2)cc1 (stereo not given) | 4 | 6 | 8 | 20 (≈ 54.6 µM) | 21 | 4 | 57 | 50 (≈ 136 µM) | 30 (≈ 81.9 µM) | 15 (≈ 40.9 µM) | 58 | 10 | 6 | 16 | 23.3 | 8 | 3 | 12 | 8 | 15 (≈ 40.9 µM) | Activity [21]: 18%; MIC [22]: 30 µg/mL (≈ 81.9 µM); zone of inhibition at 100 µg/mL [23]: 14 mm; Activity [24]: 28%; MIC [25]: 50 µg/mL (≈ 136 µM); zone of inhibition at 50 µg/mL [26]: 2 mm; Activity [27]: 39%; inhibition [28]: 40%; zone of inhibition at 100 µg/mL [29]: 8 mm; zone of inhibition at 50 µg/mL [30]: 4 mm; zone of inhibition at 50 µg/mL [31]: 9 mm |
| COc1ccccc1-c1nc(C2CC(c3ccccc3)=NN2c2ccccc2)no1 (stereo not given) | 2 | 10 | 8 | 50 (≈ 126 µM) | 11 | 3 | 60 | 35 (≈ 88.3 µM) | 55 (≈ 139 µM) | 20 (≈ 50.4 µM) | 54 | 8 | 6 | 22 | 23.9 | 6 | 4 | 12 | 6 | 15 (≈ 37.8 µM) | Activity [21]: 14%; MIC [22]: 55 µg/mL (≈ 139 µM); zone of inhibition at 100 µg/mL [23]: 14 mm; Activity [24]: 34%; MIC [25]: 55 µg/mL (≈ 139 µM); zone of inhibition at 50 µg/mL [26]: 2 mm; Activity [27]: 44%; inhibition [28]: 31%; zone of inhibition at 100 µg/mL [29]: 8 mm; zone of inhibition at 50 µg/mL [30]: 3 mm; zone of inhibition at 50 µg/mL [31]: 10 mm |
